# Reference: patent US11253508B2, “PPARy agonist for treatment of progressive supranuclear palsy” (Coherus Biosciences, Inc., priority 2017, dated 2022)
# Columns and labels:
# adiponectin [1] = assay: 24-week randomized, double-blind, placebo-controlled study: serum adiponectin levels in subjects with type 2 diabetes; format: in vivo, human; settings: for Mean Change in adiponectin from baseline to Week 24: LOCF; for Mean Change in adiponectin from baseline to Week 24 / Mean Adiponectin, Week 24 / Mean Adiponectin, Week 0: type 2 diabetes, serum; for Mean Adiponectin, Week 0: baseline (Week 0)
# Description: A randomized, double-blind, placebo-controlled, 24-week study was conducted in which adiponectin levels were measured. […] 367 subjects with type 2 diabetes (TD2)—a disease in which patient adiponectin levels are reduced—were randomly assigned to receive either 0.5, 1, 2 or 3 milligrams (“mg”) of INT131 besylate, 45 mg of pioglitazone or placebo daily for 24 weeks. To measure adiponectin levels blood was drawn at Weeks 0, 2, 6, 12 and 24.
# At baseline (Week 0) mean adiponectin levels were 1.94 micrograms per milliliter (“μg/mL”). The mean adiponectin levels at baseline and Week 24, and the mean change in adiponectin levels from baseline (Week 0) to Week 24 are disclosed in Table 1, below. The standard deviation for samples tested in each group is listed in (parenthesis). Mean baseline adiponectin values were similar for the treatment groups.
# [2] = subjects taking INT131 vs pioglitazone; DePaoli et al. Diabetes Care 2014; cited from earlier work
# HbA1c [3] = settings: DePaoli et al. Diabetes Care 2014; cited from earlier work
# adiponectin [4] = assay: 14-day study of serum adiponectin levels in healthy subjects; format: in vivo, human
# Description: A study was conducted to determine the effect of INT131 on serum adiponectin levels. Thirty healthy subjects were randomly selected to receive either placebo, 0.1 mg INT131, 1 mg INT131 or 4 mg INT131 daily for 14 days. To measure adiponectin levels blood was drawn at Days 1, 4, 8 and 14.
# [5] = system: subjects with Relapsing Remitting Multiple Sclerosis (RRMS); assay: 6-month placebo-controlled MRI study in Relapsing Remitting Multiple Sclerosis (CE lesions, T2 lesions, brain volume); format: in vivo, human; settings: for cumulative CE lesions / reduction of CE lesion burden vs. placebo / cumulative CE lesions, LSMean: over 6 months; for cumulative CE lesions: complete case analysis, placebo 7.8; for cumulative CE lesions, LSMean: placebo LSMean 6.49
# Description: 227 treatment-naive adult subjects (mean age 31 [range 18-50]; 65% female) were randomized into one of three arms: oral CHS-131 at 3 mg (n=76); oral CHS-131 at 1 mg (n=76); placebo (n=75), at 21 sites in Russia. 97% completed Part 1. Inclusion criteria: Relapsing Remitting Multiple Sclerosis (RRMS) for ≤3 years, ≥1 gadolinium-positive lesion within 1-year of enrollment, and an EDSS≤6 at screening. The patients underwent monthly MRI examinations with contrast to identify new inflammatory lesions. All […] were read blinded at the Buffalo Neuroimaging Center (Buffalo, N.Y.). In addition to CE lesions the images were scored for cumulative new/enlarged T2 lesions, and serial cortical and whole brain volumetric analysis.
# [6] = in words; cited from earlier work
# HbA1c [7] = assay: 24-week randomized, double-blind, placebo-controlled study: HbA1c levels in subjects with type 2 diabetes; format: in vivo, human; settings: 24 weeks
structure (smiles),measurement,setting,value
"CCc1ccc(CCOc2ccc(CC3SC(=O)NC3=O)cc2)nc1 (stereo not shown) [Pioglitazone, pioglitazone, reference compound]",Mean Change in adiponectin from baseline to Week 24,adiponectin [1]; 45 mg daily,2.96 µg/mL
same,"Mean Adiponectin, Week 24",adiponectin [1]; 45 mg daily,5.28 µg/mL
same,"Mean Adiponectin, Week 0",adiponectin [1]; 45 mg pioglitazone daily group,2.32 µg/mL
O=S(=O)(Nc1cc(Cl)c(Oc2cnc3ccccc3c2)c(Cl)c1)c1ccc(Cl)cc1Cl [INT131],side effects versus pioglitazone,[2],"less edema, weight gain, and hemodilution"
same,efficacy in reducing HbA1c levels versus 45 mg of pioglitazone,HbA1c [3],equally efficacious
same,change in serum adiponectin levels Day 1 to Day 14 and over placebo,adiponectin [4]; 0.1 mg daily for 14 days,no significant change
same,change in serum adiponectin levels over placebo and from Day 1 to Day 14,adiponectin [4]; 1 mg or 4 mg daily for 14 days,significant change
same,cumulative CE lesions,[5]; 1 mg oral,7.6
same,reduction of CE lesion burden vs. placebo,"[5]; 1 mg oral, p=ns, RRMS",21%
same,"cumulative CE lesions, LSMean",[5]; 1 mg oral,5.15
same,reduction of new/enlarged T2 lesions compared to placebo,"[5]; 1 mg, p=ns, RRMS",14%
same,cumulative CE lesions,[5]; 3 mg daily oral,4.2 lesions
same,reduction of CE lesion burden vs. placebo,"[5]; 3 mg daily oral, p=0.003, RRMS",52%
same,"cumulative CE lesions, LSMean",[5]; 3 mg daily oral,3.10
same,less cortical volume loss compared to placebo,"[5]; 3 mg daily, 6 months, RRMS",34.2%
same,less whole brain volume loss compared to placebo,"[5]; 3 mg daily, 6 months, RRMS",50%
same,reduction of new/enlarged T2 lesions compared to placebo,"[5]; 3 mg, p=0.0767, RRMS",30%
same,crossing of the blood brain barrier,[6],readily crosses the blood brain barrier
same,Mean Change in adiponectin from baseline to Week 24,adiponectin [1]; 0.5 mg daily,0.56 µg/mL
same,Mean Change in adiponectin from baseline to Week 24,adiponectin [1]; 1 mg daily,1.28 µg/mL
same,adiponectin treatment comparison with placebo,"adiponectin [1]; 1 mg, 2 mg, and 3 mg doses, p≤0.0109",statistically significant
same,Mean Change in adiponectin from baseline to Week 24,adiponectin [1]; 2 mg daily,3.27 µg/mL
same,Mean Change in adiponectin from baseline to Week 24,adiponectin [1]; 3 mg daily,3.83 µg/mL
same,upregulation of serum adiponectin levels compared with pioglitazone,adiponectin [1]; 2 or 3 mg INT131 vs at least 22 times the amount of pioglitazone,greater upregulation
same,"Mean Adiponectin, Week 24",adiponectin [1]; 0.5 mg daily,2.28 µg/mL
same,"Mean Adiponectin, Week 24",adiponectin [1]; 1 mg daily,3.15 µg/mL
same,"Mean Adiponectin, Week 24",adiponectin [1]; 2 mg daily,5.14 µg/mL
same,"Mean Adiponectin, Week 24",adiponectin [1]; 3 mg daily,5.83 µg/mL
same,"Mean Adiponectin, Week 0",adiponectin [1]; 0.5 mg INT131 besylate daily group,1.73 µg/mL
same,"Mean Adiponectin, Week 0",adiponectin [1]; 1 mg INT131 besylate daily group,1.87 µg/mL
same,"Mean Adiponectin, Week 0",adiponectin [1]; 2 mg INT131 besylate daily group,1.87 µg/mL
same,"Mean Adiponectin, Week 0",adiponectin [1]; 3 mg INT131 besylate daily group,2.00 µg/mL
same,reduction of HbA1c levels as compared to placebo,"HbA1c [7]; 1, 2, and 3 mg doses daily",statistically significant reduction
same,reduction of HbA1c levels compared with 45 mg of pioglitazone,HbA1c [7]; 2 and 3 mg doses daily,at least as well as 45 mg of pioglitazone
